From patent US10996215B2, “Methods for determining drug efficacy for the treatment of diffuse large B-cell lymphoma, multiple myeloma, and myeloid cancers” (CELGENE CORPORATION, priority 2013, dated 2021)

Columns and labels:
[1] = system: Aiolos, Ikaros, IRF4, Cereblon; assay: Western blot of Aiolos, Ikaros, IRF4, Cereblon in DLBCL cell lines; type: cell-based, human
Protocol: Immunoblots were probed with antibodies recognizing: Aiolos, Ikaros, Cereblon, IRF4, c-myc, CD44, EZH2, EBF 1, PU. 1, and β-actin. Signals were detected with a LI-COR imager
The following steps can be performed to harvest cells in preparation for Western Blot analysis. The steps are performed on ice and any centrifugation is performed in a 4° C. refrigerated centrifuge. RIPA lysis buffer (Pierce, cat #89900) is first prepared by adding […] proteinase inhibitors (Pierce, cat #78443) to 1 mL of RIPA buffer. Subsequently, cells are washed once in ice-cold phosphate buffered saline (PBS). The cells are then lysed with 0.25 mL RIPA lysis buffer. The PBMCs are placed on ice for 30 minutes and vortexed every 10 minutes. Lysates are frozen and stored at −80° C. prior to further processing.
Lysates are placed in a QIAshredder® tube (QIAGEN, cat #79656) and spun down 30 sec, top speed (13200 rpm) in an Eppendorf benchtop centrifuge (Model 5415 R). The lysate is then transferred to a 1.5 mL clear Eppendorf tube and spun down 10 min at top speed. The supernatent is collected without disturbing the cell debris pellet. The supernatent is dry ice frozen and stored at −80° C. prior to analysis.
The protein concentration in supernatent is measured using BCA assay and the expected protein yield is about 0.5-5 μg/μL, or 125-1250 μg total. Approximately ≥10 μg protein per lane is loaded for western blotting (IRF4, IKZF3, etc.) using antibodies against the human proteins.
Membranes are immunblotted with anti-Aiolos (Santa Cruz Biotechnology, Dallas, Tex.), anti-Ikaros (Millipore, Billerica, Mass.) and anti-Actin (Sigma, St. Louis, Mo.; or LI-COR Biosciences, Lincoln, Nebr.) and secondary antibodies (LI-COR Biosciences, Lincoln, Nebr.). The blots are analyzed on Odyssey imager (LI-COR Biosciences, Lincoln, Nebr.).

Aiolos, Ikaros = assay: FFPE IHC for Aiolos and Ikaros in WSU-DLCL2 xenograft tumors; type: in vivo; settings: WSU-DLCL2 xenograft SCID mice, 30 mg/kg qd
Protocol: WSU-DLCL2 xenograft SCID mice can be prepared using methods known in the art. In brief, female CB17 severe combined immunodeficiency (SCID) mice (6-12 weeks old) are obtained from the Charles River Laboratory (Wilmington, Mass.) and maintained in microisolator cages under sterile conditions. A total of 10×10^6 WSU-DLCL2 DLBCL cells in 100% Matrigel® (Becton Dickinson, San Jose, Calif.) are injected subcutaneously into the right flank of mice. Mice are monitored 2 or 3 times a week for the appearance of tumors.
WSU-DLCL2 xenograft SCID mice (a human tumor xenograft model) were treated with either vehicle or 30 mg/kg Compound A q.d. Tumor samples were harvested at 1 hour, 6 hours, or 24 hours after the last dose.
Immunohistochemistry was performed using standard methods. For example, immunohistochemistry is performed on the Bond-Max™ automated slide stainer (Leica Microsystems) using the associated Bond™ Polymer Refine Detection Kit. Four micron thick FFPE sections are deparaffinized on the instrument. Antigen retrieval is performed with Epitope Retrieval™ 2 (pH 9.0) for 20 minutes at 100° C. The slides are blocked for endogenous peroxidase activity with Peroxide Block for 5 minutes at room temperature. […]

CSNK1A1 (CK1α), Ikaros = assay: MG-132, MLN-4924 or Compound A pre-treatment, Western analysis in HNT-34 cells; type: cell-based; settings: 10 μM Compound A 1.5 h, 0.3 μM or less lenalidomide, 3 h or 6 h

Cc1nc2cccc(N)c2c(=O)n1C1CCC(=O)NC1=O (stereo not shown) [Compound A, 3-(5-amino-2-methyl-4-oxo-4H-quinazolin-3-yl)-piperidine-2,6-dione]
IRF4 levels ([1]; DLBCL cell lines, 1 μM or 10 μM, within 72 hours): reduce
Aiolos levels ([1]; Karpas 422 (GCB) and TMD8 (ABC), 10 μM, 1, 6 or 12 hours, vs DMSO): decrease
Aiolos and Ikaros levels ([1]; WSU-DLCL2 (GCB) and OCI-LY10 (ABC), 10 μM, 1, 6 or 12 hours, vs DMSO): decreasing
CRBN levels ([1]; nine GCB and ABC DLBCL cell lines, 1 μM or 10 μM, 72 hours): remained constant
Aiolos and Ikaros levels ([1]; nine GCB and ABC DLBCL cell lines, 1 μM or 10 μM, 72 hours, vs DMSO): decreasing
time to Aiolos and Ikaros degradation in tumor (Aiolos, Ikaros): ≤ 6 h
lenalidomide induced CSNK1A1 degradation after Compound A pre-treatment (CSNK1A1 (CK1α), Ikaros): blocks
